# According to patent US12439922B2, “Plant-based chemicals for Varroa mite control” (priority 2019, dated 2025):
# “And” between values parts separate entries of the source, which are not always exact repeats. Equal entries are not always repeated. Where two headings read alike, the source gives them in different places.
# Key:
# [1] = test system: Varroa mites (Varroa destructor); test: LD50 determination for mites (topical application, mortality at 24 h); assay type: in vivo; conditions: for estimated LD50: max. dose 3200 ng/mite in three trials; for Mean LD50 / LD50 1 / LD50 2 / LD50 3: topical, mortality at 24 h; for Mean LD50: mean±se of three trials; for LD50 1: trial 1; for LD50 2: trial 2; for LD50 3: trial 3
# Protocol: Varroa mites (Varroa destructor) were collected from colonies at the Michigan State University apiary in East Lansing, MI. Mites were collected using the “sugar shake” method (Macedo and Ellis 2002). Approximately 350 bees were brushed from brood frames into a plastic basin and then poured into 473 ml wide-mouth Mason jars fitted with screen lids (3 mm×3 mm mesh). Approximately 8 g powdered sugar were sifted through the screen and the jar was shaken for 20 seconds and let to sit for 3 minutes. The mites then fell through the screen onto a piece of paper. Mites were collected, and the sugar dusts were washed off using moistened paintbrushes. Mites were kept in Petri-dishes with worker pupae and transported to the campus lab for LD50 determination.
# Chemicals were dissolved in acetone serially diluted to obtain appropriate dosages. Each mite was topically applied with 0.2 μl of acetone containing the tested chemicals. A triplicate of 10 mites per dose were then housed in a Petri dish (diameter 3 cm, 34.5° C., RH 75%) with one white-eyed worker pupa as food. Mortality was assessed at 24 h. Mites were considered dead if no movement is observed in response to prodding with a metal probe.
# (§1) For both bee and mite mortality data, control mortality was used to correct the mortality of different doses of drugs (Abbott, 1925). A Log-Probit line was fitted for each treatment from which the LD50 values and 95% confidence intervals were calculated using the R statistical package (R Development Core Team 2008).
# honey bees (foragers) = test: LD50 determination for bees (topical application to foragers, mortality observed for 2 days); assay type: in vivo, Apis mellifera
# Protocol: Honey bees were obtained from the MSU apiary. Forty to fifty colonies were routinely kept during summer months for experiments. Foragers were used for LD50 determination because they are the most sensitive to toxins.
# Foragers were collected when they were returning to the hive by an insect vacuum. Foragers were briefly anesthetized with carbon dioxide and individual forager was dosed with 4 μl of acetone containing various dosages of insecticide (at least 5 doses per drug) and a control with 4 μl of acetone only. Bees then were caged together (a triplicate of 10 bees per dose per colony) and their mortality observed for 2 days (acute toxicity) in an incubator (34.5° C., RH 75%).
# as §1
# Varroa mites = test: Picrotoxinin applied to bees inoculated with Varroa mites: dead mites; assay type: in vivo, Varroa destructor; conditions: for 24-hour dead mite / 4-hour dead mite / 2-hour dead mite: 10 mites on 10 bees per dish
# Protocol: (§2) Picrotoxinin was dissolved in acetone (0.0064 gram picrotoxinin in 1.6 ml acetone=4 ug/ul) and then serially diluted to various doses. A selected amount of picrotoxinin was applied to each bee after CO2 anesthetization. Then, the bees were inoculated with Varroa mites (10 mites on 10 bees per dish). This procedure was employed to ensure that the mites were obtaining the chemical from the bees.
# (§3) The numbers of dead Varroa mites and dead bees were recorded after 2, 4 and 24 hours.
# bees = assay type: in vivo, Apis mellifera
# Protocol: as §2, §3
# [2] = Highest amount that dissolves in acetone; assay type: physicochemical; conditions: in 4 μl acetone
# Protocol: Higher doses to honey bees were not tested because 2 mg was the highest amount one can dissolve with 4 μl acetone.
compound,measurement,setting,value
CC(C)(C)[C@]1(O)CC2OC(=O)CC23C(=O)OC2OC(=O)[C@H](O)C231 (stereo partly shown) [Bilobalide],estimated LD50,[1],>3200 ng/mite
"CC1(C)C(C=C(Cl)Cl)C1C(=O)OC(C#N)c1ccc(F)c(Oc2ccccc2)c1 (stereo not shown) [Cyfluthrin, reference compound]",Mean LD50,[1],0.63 ± 0.18 ng/mite
same,LD50 1,[1],0.46 ng/mite
same,LD50 2,[1],0.82 ng/mite
same,LD50 3,[1],0.60 ng/mite
C[C@@H]1C(=O)O[C@H]2[C@H](O)[C@@]34[C@H]5C[C@@H](C(C)(C)C)[C@]36[C@@H](OC(=O)[C@@H]6O)O[C@@]4(C(=O)O5)[C@@]12O [Ginkolide B],estimated LD50,[1],>3200 ng/mite
"C=C(C)[C@@H]1[C@H]2OC(=O)[C@@H]1[C@]1(O)C[C@H]3O[C@]34C(=O)O[C@H]2[C@]14C [Picrotoxinin, picrotoxinin]",LD50 for this particular trial (FIG. 1),[1]; dose response of FIG. 1,22.61 ng/mite
same,susceptibility of Varroa mites to toxicity compared to honey bees,[1]; mite LD50 versus highest bee dose,"at least 100,000 fold"
same,Mean LD50,[1],20.16 ± 2.00 ng/mite
same,Mean LD50,[1]; listed as picrotoxinin,20.16±2.00 ng/mite
same,LD50 1,[1],20.82 ng/mite
same,LD50 2,[1],22.61 ng/mite
same,LD50 3,[1],17.05 ng/mite
same,killing of honeybees at highest dose,"honey bees (foragers); 2,000,000 ng (2 mg) per bee in 4 μl acetone",failed to kill any honeybees
same,LD50,"honey bees (foragers); topical to foragers, max dose 2000 ug/bee",>2000 (max dose ug/bee
same,24-hour dead mite,Varroa mites; 0.000005 ug/bee,1
same,4-hour dead mite,Varroa mites; 0.00005 ug/bee,1
same,2-hour dead mite,Varroa mites; 0.0005 ug/bee,1
same,4-hour dead mite,Varroa mites; 0.0005 ug/bee,3
same,24-hour dead mite,Varroa mites; 0.0005 ug/bee,3 and 2
same,2-hour dead mite,Varroa mites; 0.005 ug/bee,1
same,4-hour dead mite,Varroa mites; 0.005 ug/bee,1
same,4-hour dead mite,Varroa mites; 0.05 ug/bee,2 and 1
same,24-hour dead mite,Varroa mites; 0.05 ug/bee,5 and 3
same,2-hour dead mite,Varroa mites; 0.1 ug/bee,2
same,4-hour dead mite,Varroa mites; 0.1 ug/bee,5 and 4
same,24-hour dead mite,Varroa mites; 0.1 ug/bee,6 and 9
same,2-hour dead mite,Varroa mites; 1 ug/bee,2 and 4
same,4-hour dead mite,Varroa mites; 1 ug/bee,4 and 5
same,24-hour dead mite,Varroa mites; 1 ug/bee,7 and 10
same,24 hr dead mite,Varroa mites; treatment 1 ug/ul,9 and 10
same,24 hr dead mite,Varroa mites; treatment 4 ug/ul,10
same,24-hour dead bee,"bees; 0.005 ug/bee, 10 bees per dish",1
same,2-hour dead bee,"bees; 0.1 ug/bee, 10 bees per dish",1
same,4-hour dead bee,"bees; 0.1 ug/bee, 10 bees per dish",1
same,4-hour dead bee,"bees; 1 ug/bee, 10 bees per dish, # = dead perhaps due to leaked sugar syrup",1#
same,24 hr dead bee,bees; treatment 1 ug/ul,0
same,highest amount one can dissolve,[2],2 mg
Ginkolide A,Mean LD50,[1],535.52±450.90 ng/mite
same,LD50 1,[1],348.63 ng/mite
same,LD50 2,[1],1049.82 ng/mite
same,LD50 3,[1],208.10 ng/mite
Ginkolide C,estimated LD50,[1],>3200 ng/mite
